Reference: patent publication US4745196A, “Orally active phosphonyl hydroxyacyl prolines” (E. R. Squibb & Sons, Inc., priority 1986, dated 1988)
Where a name gives a salt, the structure may show the parent alone.

System: angiotensin converting enzyme (ACE)
Test: in vivo attenuation of angiotensin I pressor response after oral administration in conscious, normotensive rats
Conditions: maximum during three-hour period, mean of at least four rats
Method: The compounds of formula I were tested in vivo in conscious, normotensive rats. Angiotensin I given intravenously increases blood pressure due to conversion to angiotensin II via the angiotensin converting enzyme (ACE). ACE inhibition was reflected by the attenuation of an angiotensin I pressor response after compound administration. The in vivo testing procedure is described in greater detail by Rubin et al., "SQ14,225 (D-3-Mercapto-2-Methylpropanoyl-L-Proline), A Novel Orally Active Inhibitor Of Angiotensin I Converting Enzyme", J. Pharm. Exp. Therap., Vol. 204, p 271-280 (1978).
The inhibition of the angiotensin I pressor response is expressed as the percentage of the response to angiotensin I obtained before the test compound was administered, and was measured at regular intervals during a three-hour period following the administration of the test compound. The maximum percentage inhibition observed during this period is given in the table as a number from 0 to 100 percent. All results are the mean values obtained for testing of each compound in at least four rats. For compounds tested at more than one dose, it can be observed that increased amounts of compound administered lead to increased levels of inhibition.

[1] = oral dose 0.5 (dose unit not given)
[2] = oral dose 1.5 (dose unit not given)
[3] = oral dose 5 (dose unit not given)
[4] = oral dose 0.5 (dose unit not given), dilithium salt
[5] = oral dose 1.5 (dose unit not given), dilithium salt
[6] = oral dose 5 (dose unit not given), dilithium salt
[7] = oral dose 15 (dose unit not given)

SMILES	Maximum Percent Inhibition of the angiotensin I pressor response [1]	Maximum Percent Inhibition of the angiotensin I pressor response [2]	Maximum Percent Inhibition of the angiotensin I pressor response [3]	Maximum Percent Inhibition of the angiotensin I pressor response [4]	Maximum Percent Inhibition of the angiotensin I pressor response [5]	Maximum Percent Inhibition of the angiotensin I pressor response [6]	Maximum Percent Inhibition of the angiotensin I pressor response (oral dose 15 (dose unit not given), dilithium salt)	Maximum Percent Inhibition of the angiotensin I pressor response [7]
NCCCC[C@H](OP(=O)(O)CCCCc1ccccc1)C(=O)N1CCC[C@H]1C(=O)O [Example 4, (S)-1-[6-Amino-2-[[hydroxy(4-phenylbutyl)phosphinyl]oxy]-1-oxohexyl]-L-proline]	46.60%	69.00%	89.90%					
CCCCCCP(=O)(O)O[C@@H](CCCCN)C(=O)N1CCC[C@H]1C(=O)O [Example 8, (S)-1-[6-Amino-2-[(hexylhydroxyphosphinyl)oxy]-1-oxohexyl]-L-proline, dilithium salt]				19.70%	72.40%	82.70%	85.50%	
CCCCCCCP(=O)(O)O[C@@H](CCCCN)C(=O)N1CCC[C@H]1C(=O)O [Example 10, 1-[(S)-6-Amino-2-[(heptylhydroxyphosphinyl)oxy]-1-oxohexyl]-L-proline]	45.00%	66.00%	75.00%					
CCCCCCP(=O)(O)O[C@@H](CCCCN)C(=O)N1CCC[C@H]1C(=O)O [Example 9, (S)-1-[6-Amino-2-[(hexylhydroxyphosphinyl)oxy]-1-oxohexyl]-L-proline]	17.90%	66.50%	82.10%					90.30%
CCCCCCCCP(=O)(O)O[C@@H](CCCCN)C(=O)N1CCC[C@H]1C(=O)O [Example 12, (S)-1-[6-Amino-2-[(octylhydroxyphosphinyl)oxy]-1-oxohexyl]-L-proline, dilithium salt]	16.80%	51.10%	82.60%					93.60%
NCCCC[C@H](OP(=O)(O)CCCCc1ccc(F)cc1)C(=O)N1CCC[C@H]1C(=O)O [Example 5, (S)-1-[6-Amino-2-[[[4-(4-fluorophenyl)butyl]hydroxyphosphinyl]oxy]-1-oxohexyl]-L-proline]	22.20%	69.00%	80.50%					
NCCCC[C@H](OP(=O)(O)CCCCc1ccccc1)C(=O)N1CCC[C@H]1C(=O)O [Example 3, (S)-1-[6-Amino-2-[[hydroxy(4-phenylbutyl)phosphinyl]oxy]-1-oxohexyl]-L-proline, dilithium salt]				20.90%	74.00%	91.00%		97.10%
NCCCC[C@H](OP(=O)(O)CCCc1ccccc1)C(=O)N1CCC[C@H]1C(=O)O [Example 2, (S)-1-[6-Amino-2-[[hydroxy(3-phenylpropyl)phosphinyl]oxy]-1-oxohexyl]-L-proline]		32.30%	66.70%					
NCCCC[C@H](OP(=O)(O)CCCCCc1ccccc1)C(=O)N1CCC[C@H]1C(=O)O [Example 6, (S)-1-[6-Amino-2-[[hydroxy(5-phenylpentyl)phosphinyl]oxy]-1-oxohexyl]-L-proline]			64.70%					
CCCCCP(=O)(O)O[C@@H](CCCCN)C(=O)N1CCC[C@H]1C(=O)O [Example 7, 1-[(S)-6-Amino-2-[(hydroxypentylphosphinyl)oxy]-1-oxohexyl]-L-proline]			57.20%					
NCCCC[C@H](OP(=O)(O)CCc1ccccc1)C(=O)N1CCC[C@H]1C(=O)O [Example 1, (S)-1-[6-Amino-2-[[hydroxy(2-phenylethyl)phosphinyl]oxy]-1-oxohexyl]-L-proline, dilithium salt]		50.30%	64.50%					
